Assay results taken from patent publication US20260365670A1, “EGFR INHIBITORS AND USES THEREOF” (DIZAL (JIANGSU) PHARMACEUTICAL CO., LTD., priority 2022, published 2026).
Read-outs that look alike come from different tables or passages of the source.

Legend:
EGFR wild type = target: T1, EGFR wild type (Homo sapiens, UniProt P00533); assay: Inhibition of EGFR wild type biochemical enzymatic activity (HTRF); details: IC50 @WT, EGFR wild type, 1 mM ATP, 1 h at room temperature
T1 construct: purchased Carna Bio
T1 sequence (P00533 25-1210): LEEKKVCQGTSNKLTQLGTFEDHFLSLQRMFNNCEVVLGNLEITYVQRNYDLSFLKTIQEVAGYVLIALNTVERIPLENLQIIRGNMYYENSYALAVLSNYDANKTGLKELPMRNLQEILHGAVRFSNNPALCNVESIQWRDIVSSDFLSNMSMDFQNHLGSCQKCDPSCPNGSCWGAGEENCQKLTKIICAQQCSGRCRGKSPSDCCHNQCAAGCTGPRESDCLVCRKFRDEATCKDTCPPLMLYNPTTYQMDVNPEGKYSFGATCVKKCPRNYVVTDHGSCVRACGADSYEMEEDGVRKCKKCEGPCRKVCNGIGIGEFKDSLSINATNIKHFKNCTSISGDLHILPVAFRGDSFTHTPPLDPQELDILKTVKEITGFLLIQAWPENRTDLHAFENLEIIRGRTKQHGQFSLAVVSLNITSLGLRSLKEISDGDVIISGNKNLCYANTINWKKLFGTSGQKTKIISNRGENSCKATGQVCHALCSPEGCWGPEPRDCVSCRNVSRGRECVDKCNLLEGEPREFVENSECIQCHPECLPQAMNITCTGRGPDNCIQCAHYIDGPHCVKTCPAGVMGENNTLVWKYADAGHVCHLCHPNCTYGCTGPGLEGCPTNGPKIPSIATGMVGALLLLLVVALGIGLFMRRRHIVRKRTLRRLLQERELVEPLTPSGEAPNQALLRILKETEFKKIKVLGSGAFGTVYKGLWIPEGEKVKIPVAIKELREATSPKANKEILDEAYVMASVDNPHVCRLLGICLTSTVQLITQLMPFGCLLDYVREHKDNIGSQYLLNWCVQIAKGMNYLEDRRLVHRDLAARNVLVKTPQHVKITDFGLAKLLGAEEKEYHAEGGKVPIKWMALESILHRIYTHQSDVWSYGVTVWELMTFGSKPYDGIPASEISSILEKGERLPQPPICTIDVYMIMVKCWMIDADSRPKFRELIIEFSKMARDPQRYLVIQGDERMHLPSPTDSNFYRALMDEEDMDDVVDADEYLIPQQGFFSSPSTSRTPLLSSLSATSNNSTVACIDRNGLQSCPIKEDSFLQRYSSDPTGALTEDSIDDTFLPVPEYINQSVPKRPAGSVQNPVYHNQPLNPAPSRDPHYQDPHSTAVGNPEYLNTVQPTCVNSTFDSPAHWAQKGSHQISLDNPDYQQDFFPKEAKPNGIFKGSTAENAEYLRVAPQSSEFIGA
Procedure, shortened: (§1)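 Phosphorylation of TK Substrate-biotin (1 μM) was measured at 1 mM ATP over a 1 h room-temperature incubation with serially varied compound. Detection was by HTRF ratio and analysis by 4PL fit to IC50.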

EGFR[T790M/C797S/L858R] = target: T2, EGFR[T790M/C797S/L858R] (Homo sapiens, UniProt P00533, C797S/L858R/T790M); assay: Inhibition of EGFR[T790M/C797S/L858R] biochemical enzymatic activity (HTRF); details: IC50 @T790M- C797S - L858R, EGFR[T790M/C797S/L858R], 1 mM ATP, 1 h at room temperature
T2 construct: purchased Carna Bio
Procedure, shortened: as §1

EGFR L858R = target: T3, EGFR L858R (Homo sapiens, UniProt P00533, L858R); assay: Inhibition of EGFR L858R biochemical enzymatic activity (HTRF); details: IC50 @L858R, 1 mM ATP, 1 h at room temperature
T3 construct: purchased Carna Bio
T3 sequence (P00533 25-1210 L858R): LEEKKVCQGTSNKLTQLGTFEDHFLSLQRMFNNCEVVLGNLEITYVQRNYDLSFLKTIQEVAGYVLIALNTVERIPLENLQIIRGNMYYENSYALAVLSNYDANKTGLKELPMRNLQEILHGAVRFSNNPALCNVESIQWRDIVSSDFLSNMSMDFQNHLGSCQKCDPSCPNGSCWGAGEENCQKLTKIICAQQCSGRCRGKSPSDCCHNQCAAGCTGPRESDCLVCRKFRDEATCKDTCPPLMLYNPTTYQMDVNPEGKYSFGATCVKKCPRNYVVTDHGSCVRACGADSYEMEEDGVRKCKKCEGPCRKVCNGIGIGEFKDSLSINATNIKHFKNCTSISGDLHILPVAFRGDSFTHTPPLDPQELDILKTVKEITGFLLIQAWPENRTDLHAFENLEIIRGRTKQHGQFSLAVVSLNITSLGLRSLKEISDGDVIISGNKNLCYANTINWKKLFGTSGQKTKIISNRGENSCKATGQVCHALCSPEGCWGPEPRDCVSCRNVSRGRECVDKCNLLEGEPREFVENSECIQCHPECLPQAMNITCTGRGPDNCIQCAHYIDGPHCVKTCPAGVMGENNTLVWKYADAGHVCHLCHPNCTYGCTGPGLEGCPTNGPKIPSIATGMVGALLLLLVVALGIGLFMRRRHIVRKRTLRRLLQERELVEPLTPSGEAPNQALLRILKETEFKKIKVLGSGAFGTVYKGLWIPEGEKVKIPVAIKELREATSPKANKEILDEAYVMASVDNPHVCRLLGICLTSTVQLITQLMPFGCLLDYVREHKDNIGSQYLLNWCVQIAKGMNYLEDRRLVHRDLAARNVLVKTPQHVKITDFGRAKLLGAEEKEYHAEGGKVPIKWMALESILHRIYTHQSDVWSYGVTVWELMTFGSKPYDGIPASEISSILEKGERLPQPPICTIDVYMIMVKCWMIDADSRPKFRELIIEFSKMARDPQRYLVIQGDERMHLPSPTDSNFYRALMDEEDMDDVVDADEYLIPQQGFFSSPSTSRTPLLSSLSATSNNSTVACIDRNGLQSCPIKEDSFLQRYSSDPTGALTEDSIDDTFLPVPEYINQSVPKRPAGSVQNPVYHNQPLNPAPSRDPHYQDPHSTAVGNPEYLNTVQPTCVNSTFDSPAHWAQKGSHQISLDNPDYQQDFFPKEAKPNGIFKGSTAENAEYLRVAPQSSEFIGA
Procedure, shortened: as §1

EGFR Exon19Del/T790M = target: T4, EGFR Exon19Del/T790M (Homo sapiens, UniProt P00533, DEL746-750/T790M); assay: Inhibition of EGFR Exon19Del/T790M biochemical enzymatic activity (HTRF); details: IC50 @Del19-T790M, EGFR Exon19Del/T790M, 1 mM ATP, 1 h at room temperature
T4 construct: purchased Carna Bio
Procedure, shortened: as §1

EGFR (d746-750 C797S) = target: T5, EGFR (d746-750 C797S) (Homo sapiens, UniProt P00533, C797S/DEL746-750); assay: Inhibition of EGFR (d746-750 C797S) biochemical enzymatic activity (HTRF); details: IC50 @Del19-C797S, EGFR (d746-750 C797S), 1 mM ATP, 1 h at room temperature
T5 construct: purchased signalchem
T5 sequence (P00533 with tags, fused parts or gaps DEL746-750/C797S limits assumed): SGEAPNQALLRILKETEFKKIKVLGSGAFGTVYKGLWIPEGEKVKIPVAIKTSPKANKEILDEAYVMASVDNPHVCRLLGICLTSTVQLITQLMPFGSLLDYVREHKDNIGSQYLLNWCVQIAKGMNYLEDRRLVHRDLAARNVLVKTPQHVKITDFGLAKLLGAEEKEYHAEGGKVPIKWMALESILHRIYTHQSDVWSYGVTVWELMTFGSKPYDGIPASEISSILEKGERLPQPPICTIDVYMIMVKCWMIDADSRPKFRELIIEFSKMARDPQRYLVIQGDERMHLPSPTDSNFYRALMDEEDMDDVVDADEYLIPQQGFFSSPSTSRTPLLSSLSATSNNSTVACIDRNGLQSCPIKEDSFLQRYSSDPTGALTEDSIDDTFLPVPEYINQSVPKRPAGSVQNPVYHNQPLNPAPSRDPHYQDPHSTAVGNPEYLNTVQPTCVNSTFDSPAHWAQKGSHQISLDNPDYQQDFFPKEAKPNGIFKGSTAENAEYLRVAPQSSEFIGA
Procedure, shortened: as §1

[1] = target: T6, EGFR[T790M/C797S/d746-750] (Homo sapiens, UniProt P00533, C797S/DEL746-750/T790M); assay: Inhibition of EGFR[T790M/C797S/d746-750] biochemical enzymatic activity (HTRF); details: IC50 @T790M - C797S - Del19, EGFR[T790M/C797S/d746-750], 1 mM ATP, 1 h at room temperature
T6 construct: purchased Carna Bio
Procedure, shortened: as §1

EGFR Exon19Del = target: T7, EGFR Exon19Del (Homo sapiens, UniProt P00533, DEL746-750); assay: Inhibition of EGFR Exon19Del biochemical enzymatic activity (HTRF); details: IC50 @Del19, EGFR Exon19Del, 1 mM ATP, 1 h at room temperature
T7 construct: purchased Carna Bio
T7 sequence (P00533 with tags, fused parts or gaps DEL746-750 limits assumed): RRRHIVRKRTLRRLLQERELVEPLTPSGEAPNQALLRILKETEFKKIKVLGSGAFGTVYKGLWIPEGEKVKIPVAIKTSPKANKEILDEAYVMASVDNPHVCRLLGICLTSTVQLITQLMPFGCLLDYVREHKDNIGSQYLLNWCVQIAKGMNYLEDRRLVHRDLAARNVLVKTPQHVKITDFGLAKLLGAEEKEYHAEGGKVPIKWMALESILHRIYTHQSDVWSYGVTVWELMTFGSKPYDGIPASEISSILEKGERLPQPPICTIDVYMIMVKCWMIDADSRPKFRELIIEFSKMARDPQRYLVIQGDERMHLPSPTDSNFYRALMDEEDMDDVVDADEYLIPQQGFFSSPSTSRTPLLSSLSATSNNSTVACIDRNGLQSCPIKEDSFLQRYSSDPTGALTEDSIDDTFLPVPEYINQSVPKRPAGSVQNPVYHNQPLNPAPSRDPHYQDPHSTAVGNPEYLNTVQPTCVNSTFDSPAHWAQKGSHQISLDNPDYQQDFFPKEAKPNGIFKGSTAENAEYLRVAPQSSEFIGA
Procedure, shortened: as §1

EGFR (C797S L858R) = target: T8, EGFR (C797S L858R) (Homo sapiens, UniProt P00533, C797S/L858R); assay: Inhibition of EGFR (C797S L858R) biochemical enzymatic activity (HTRF); details: IC50 @L858-C797S, EGFR (C797S L858R), 1 mM ATP, 1 h at room temperature
T8 construct: purchased signalchem
Procedure, shortened: as §1

EGFR L858R/T790M = target: T9, EGFR L858R/T790M (Homo sapiens, UniProt P00533, L858R/T790M); assay: Inhibition of EGFR L858R/T790M biochemical enzymatic activity (HTRF); details: IC50 @L858R-T790M, EGFR L858R/T790M, 1 mM ATP, 1 h at room temperature
T9 construct: purchased Carna Bio
T9 sequence (P00533 25-1210 T790M/L858R): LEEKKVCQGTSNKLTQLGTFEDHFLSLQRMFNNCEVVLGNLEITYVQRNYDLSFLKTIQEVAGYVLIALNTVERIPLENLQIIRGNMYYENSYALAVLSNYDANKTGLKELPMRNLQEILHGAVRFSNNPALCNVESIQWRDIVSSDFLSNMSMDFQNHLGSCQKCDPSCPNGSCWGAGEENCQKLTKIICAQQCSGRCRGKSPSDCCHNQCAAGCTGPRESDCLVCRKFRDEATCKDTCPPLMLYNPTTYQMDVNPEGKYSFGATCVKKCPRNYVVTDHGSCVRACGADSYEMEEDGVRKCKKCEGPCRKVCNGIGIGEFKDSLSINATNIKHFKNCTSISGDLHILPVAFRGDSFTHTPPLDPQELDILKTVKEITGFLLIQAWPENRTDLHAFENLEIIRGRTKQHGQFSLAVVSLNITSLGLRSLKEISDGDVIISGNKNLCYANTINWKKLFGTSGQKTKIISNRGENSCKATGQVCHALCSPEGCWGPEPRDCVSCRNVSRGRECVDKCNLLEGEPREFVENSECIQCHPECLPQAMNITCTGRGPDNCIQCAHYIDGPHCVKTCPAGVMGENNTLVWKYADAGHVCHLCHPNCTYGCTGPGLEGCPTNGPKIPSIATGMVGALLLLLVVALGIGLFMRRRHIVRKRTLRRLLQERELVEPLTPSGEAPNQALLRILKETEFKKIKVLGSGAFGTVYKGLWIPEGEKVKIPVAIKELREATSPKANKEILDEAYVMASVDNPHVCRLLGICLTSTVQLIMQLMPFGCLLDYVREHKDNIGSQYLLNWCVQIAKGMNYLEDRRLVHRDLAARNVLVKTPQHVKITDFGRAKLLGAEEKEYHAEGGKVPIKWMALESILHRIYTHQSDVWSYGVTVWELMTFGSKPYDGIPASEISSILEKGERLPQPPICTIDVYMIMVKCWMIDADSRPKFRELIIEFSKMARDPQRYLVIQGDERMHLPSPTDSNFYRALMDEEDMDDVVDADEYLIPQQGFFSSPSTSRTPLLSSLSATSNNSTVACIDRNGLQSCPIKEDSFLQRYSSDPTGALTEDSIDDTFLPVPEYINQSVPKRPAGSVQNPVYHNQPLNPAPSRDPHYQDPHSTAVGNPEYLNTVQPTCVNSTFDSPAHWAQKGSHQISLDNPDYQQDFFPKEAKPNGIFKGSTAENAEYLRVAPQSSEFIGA
Procedure, shortened: as §1

[2] = test system: Ba/F3 cells expressing EGFR mutations; assay: Cell proliferation assay, Ba/F3 cells expressing EGFR mutations (CellTiter-Glo, 72 hours); assay type: cell-based
Procedure, shortened: (§2)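 GI50 is the concentration giving 50% proliferation inhibition. Growth for this was normalised to a baseline viability reading taken when compound was added, and to DMSO wells. PC-9 (500 cells/well) and mutant-EGFR Ba/F3 (5000 cells/well) are treated after overnight seeding in RPMI1640-based medium.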

PC-9 = assay: Cell proliferation assay, PC-9 cells (CellTiter-Glo, 72 hours); assay type: cell-based; details: PC9 cells, read-out: GI50 PC9
Procedure, shortened: as §2

IC50 (EGFR wild type) [nM] | IC50 (EGFR[T790M/C797S/L858R]) [nM] | IC50 (EGFR L858R) [nM] | IC50 (EGFR Exon19Del/T790M) [nM] | IC50 (EGFR (d746-750 C797S)) [nM] | IC50 [1] [nM] | IC50 (EGFR Exon19Del) [nM] | IC50 (EGFR (C797S L858R)) [nM] | IC50 (EGFR L858R/T790M) [nM] | other results | SMILES
> 5000 | > 5000 | > 5000 | 430 | 2480 | 123 | > 5000 | > 5000 | > 5000 | GI50 ([2]; BaF3 cells, EGFR DEL19 - C797S, read-out: GI50 DEL19 - C797S/BaF3): 212 nM; GI50 ([2]; BaF3 cells, EGFR DEL19 - T790-C797S, read-out: GI50 DEL19 - T790-C797S/BaF3): 164 nM; GI50 ([2]; BaF3 cells, EGFR L858R - C797S, read-out: GI50 L858R - C797S/BaF3): 312 nM; GI50 ([2]; BaF3 cells, EGFR L858R - T790-C797S, read-out: GI50 L858R - T790-C797S/BaF3): 41 nM; GI50 ([2]; BaF3 cells, EGFR L858R - T790M, read-out: GI50 L858R - T790M/BaF3): 194 nM; GI50 ([2]; BaF3 cells, EGFR L858R, read-out: GI50 L858R/BaF3): 877 nM; GI50 ([2]; EGFR DEL19 - T790M, read-out: GI50 DEL19 - T790M): 258 nM; GI50 (PC-9): 950 nM | Cc1cc2cc(n1)-c1cnn(C)c1OCCN1CC3CCC(C3)(C1)n1c(nc3ccc(N4CCC(N(C)C)CC4)cc31)NC2=O (single isomer, unassigned) [Example B40A, 5-[4-(dimethylamino)piperidin-1-yl]-15,21-dimethyl-23-oxa-2,9,11,16,20,21,26-heptaazaheptacyclo[24.4.1.1^{1,28}.1^{13,17}.0^{2,10}.0^{3,8}.0^{18,22}]tritriaconta-3,5,7,9,13,15,17(33),18(22),19-nonaen-12-one]
> 5000 | 5.4 | > 5000 | 3.8 | 6.5 | 2.5 | 16 | 73 | 12 | GI50 ([2]; Mus musculus, BaF3, 72 h, BaF3 cells, EGFR DEL19 - C797S, read-out: GI50 DEL19 - C797S/BaF3): 22 nM; GI50 ([2]; Mus musculus, BaF3, 72 h, BaF3 cells, EGFR DEL19 - T790-C797S, read-out: GI50 DEL19 - T790-C797S/BaF3): 15 nM; GI50 ([2]; Mus musculus, BaF3, 72 h, BaF3 cells, EGFR L858R - C797S, read-out: GI50 L858R - C797S/BaF3): 195 nM; GI50 ([2]; Mus musculus, BaF3, 72 h, BaF3 cells, EGFR L858R - T790-C797S, read-out: GI50 L858R - T790-C797S/BaF3): 5.9 nM; GI50 ([2]; Mus musculus, BaF3, 72 h, BaF3 cells, EGFR L858R, read-out: GI50 L858R/BaF3): 442 nM; GI50 ([2]; Mus musculus, BaF3, 72 h, EGFR DEL19 - T790M, read-out: GI50 DEL19 - T790M): 7.2 nM; GI50 (PC-9; Homo sapiens, PC-9, 72 h): 113 nM | Cc1cc2cc(n1)-c1cnn(C)c1OCCCCCn1c(nc3ccc4c(c31)CCN(CCN(C)C)C4)NC2=O [Example B23, 18-[2-(Dimethylamino)ethyl]-5,30-dimethyl-7-oxa-4,5,13,18,24,26,31-heptaazahexacyclo[26.3.1.0^{2,6}.0^{13,25}.0^{14,23}.0^{15,20}]dotriaconta-1(31),2(6),3,14,20,22,24,28(32),29-nonaen-27-one]
